Measurements from US5719287A, “Intermediates for inhibitors of HIV protease and method of preparation thereof” (Eli Lilly and Company, priority 1995, dated 1998).

biological target: T1, HIV-1 protease (Human immunodeficiency virus type 1 group M subtype B, UniProt P04585); experiment: biochemical; details: purified HIV-1 protease, MES-ALB buffer pH 5.5; 1 h preincubation, 16 h with substrate, room temperature; IC50 values for Examples 2-70 are standardized relative to Ex 1
T1 construct: Purified HIV-1 protease was obtained as described below; made in house; host or cells: E. coli K12 L507/pHP10D (NRRL B-18560)
Description: N^α -Biotin-[…]Ne-FITC)-OH
The purified peptide was labeled as follows with a fluorescent marker at the C-terminal end for use in the assay. N^α -Biotin-Gly-Ser-Gln-Asn-Tyr-Pro-lle-Val-Gly-Lys-OH (1.206 g, 0.936 mmoles) was dissolved in 100 mL of 0.1M sodium borate, pH 9.5 with stirring. Then, 3 g of fluorescein isothiocyanate (7.7 mmol) was dissolved in 15 mL dimethyl sulfoxide and the solution added to the reaction in 10 equal portions over the course of a two hour period. The reaction was allowed to proceed for a further one hour after the final addition had been made. The pH of the solution was adjusted to 3 with 5N HCl. A precipitate formed which was removed from the reaction by centrifugation.
Fluorescence HIV-1 Protease Inhibitor Assay Procedure.
To each well of a round bottom, 96-well plate is added 20 μl of the Enzyme Solution followed by 10 μl of the compound to be evaluated in 20% aqueous DMSO. Purified HIV-1 protease was obtained as described below. The solution is incubated for one hour at room temperature and then 20 μl of a solution of the substrate N^α -Biotin-[…]N^e -FITC)-OH, in MES-ALB buffer (1.5 μl/ml) is added to each well. The solutions are incubated for 16 hours at room temperature and thereafter to each well is added 150 μl of MES-ALB buffer.
To each well of a 96-well Pandex plate is added 25 μl of the Avidin Coated Beads Solution. Next, 25 μl of the diluted incubation solutions, described above, are added to each well of the Pandex plate. The solutions are mixed well and the plates are loaded into a Pandex® machine, washed, evacuated and read. Sample detection was performed by excitation at 485 nm and reading the resulting epifluorescence at 535 nm.
A culture of E. coli K12 L507/pHP10D was grown to mid-log phase at 32° C. in LB media containing 12.5 μg/ml tetracycline. The cultivation temperature was quickly elevated to 40° C. to induce gene expression, and the cells were allowed to grow for 2.5 hours at this temperature before the culture was quickly chilled on ice. The cells were centrifuged and the cell pellet was resuspended in 20 ml 50 mmol MES buffer (pH 6.0) containing 1 mmol EDTA, 1 mmol DTT, 1 mmol PMSF, and 10% glycerol (Buffer A). Cells were lysed by sonication using a Fischer Model 300 Dismembrator and a microtip probe. […] Enzymatic activity was measured by HPLC using the synthetic peptide SQNYPIV as described in Margolin et al., Biochem. Biophys. Res. Commun., 167, 554-560 (1990); the production of the pl peptide (SQNY) was measured.
Active fractions were pooled, made 1.2M in ammonium sulfate, and applied to a hexyl agarose column (2.0×18 cm) equilibrated in Buffer A containing 1.2M ammonium sulfate. The sample, in 125 ml (1.85 mg/ml), was loaded at a flow rate of 1 ml/min at 4° C. […] The column was then washed isocratically in Buffer A for 120 min. Active fractions were pooled, concentrated to 10 ml using an Amicon stirred cell with a YM-10 membrane, and applied at 1 ml/min to a MonoS cation exchange column (1.0×10 cm) equilibrated in Buffer A. After washing isocratically for 30 min, protease was eluted using a linear gradient of 0-0.45M NaCl in Buffer A over 40 min followed by an isocratic wash with Buffer A containing 0.45M NaCl over 30 min. Chromatography was performed at 25° C.
Pooled active fractions were concentrated to 200 ul using an Amicon stirred cell and a YM-10 membrane, and the protease was then applied to a Superose 6 size exclusion column equilibrated in Buffer A containing 0.1M NaCl. The column was washed isocratically in this buffer at a flow rate of 0.5 ml/min.

Fluorescence Assay IC50	Structure (SMILES)
1.3 ng/mL	CC(C)(C)NC(=O)c1ccccc1CC(O)C(Cc1ccccc1)NC(=O)C(CC(N)=O)NC(=O)c1cccc2cccnc12 (stereo not drawn) [Example 61, [1S-(1R*, 4R*, 5S*)]-N-(1-(2-amino-2-oxoethyl)-2-oxo-3-aza-4-phenylmethyl-5-hydroxy-6-(2-(1-t-butylamino-1-oxomethyl)phenyl)hexyl)-8-quinolinyl carboxamide]
1.5 ng/mL	CC(C)(C)NC(=O)c1ccccc1CC(O)C(Cc1ccccc1)NC(=O)C(CC(N)=O)NC(=O)c1cc(C(C)(C)C)c2ccccc2n1 (stereo not drawn) [Example 66, [1S-(1R*, 4R*, 5S*)]-N-(1-(3-amino-2-oxoethyl)-2-oxo-3-aza-4-phenylmethyl-5-hydroxy-6-(2-(1-t-butylamino-1-oxomethyl)phenyl)hexyl)-4-(2,2-dimethylethyl)quinolin-2-yl carboxamide]

same assay, conditions: purified HIV-1 protease, MES-ALB buffer pH 5.5; 1 h preincubation, 16 h with substrate, room temperature; IC50 values for Examples 2-70 are standardized relative to Ex 1; read-out: Fluorescence Assay IC50 (converted)

IC50	Structure (SMILES)
0.228 nM	CC(C)(C)NC(=O)c1ccccc1C[C@@H](O)[C@H](Cc1ccccc1)NC(=O)[C@H](CC(=O)NNc1cccnc1)NC(=O)c1ccc2ccccc2n1 [Example 50, [1S-(1R*, 4R*, 5S*)]-N-(1-(2-(N-(N-3-pyridyl)amino)amino)-2-oxoethyl)-2-oxo-3-aza-4-phenylmethyl-5-hydroxy-6-(2-(1-t-butylamino-1-oxomethyl)phenyl)hexyl)-2-quinolinyl carboxamide]
11.2 nM	CC(C)(C)NC(=O)c1ccccc1C[C@@H](O)[C@H](Cc1ccccc1)NC(=O)[C@H](CC(N)=O)NC(=O)c1ccc2cc(F)cc(F)c2n1 [Example 59, [1S-(1R*, 4R*, 5S*)]-N-(1-(2-amino-2-oxoethyl)-2-oxo-3-aza-4-phenylmethyl-5-hydroxy-6-(2-(1-t-butylamino-1-oxomethyl)phenyl)hexyl)-6,8-difluoroquinolin-2-yl carboxamide]

same assay, conditions: read-out: Fluorescence Assay IC50 (converted)

IC50	Structure (SMILES)
14.9 nM	CC(C)(C)NC(=O)c1ccccc1C[C@@H](O)[C@H](CC1CCCCC1)NC(=O)[C@H](CC(N)=O)NC(=O)c1ccc2ccccc2n1 [Example 51, [1S-(1R*, 4R*. 5S*)]-N-(1-(2-amino-2-oxoethyl)-2-oxo-3-aza-4-cyclohexylmethyl-5-hydroxy-6-(2-(1-t-butylamino-1-oxomethyl)phenyl)hexyl)-2-quinolinyl carboxamide]
4.62 nM	CC(C)(C)NC(=O)c1ccccc1C[C@@H](O)[C@H](Cc1ccccc1)NC(=O)[C@H](CC(N)=O)NC(=O)c1ccc2cccc(F)c2n1 [Example 52, [1S-(1R*, 4R*, 5S*)]-N-(1-(2-amino-2-oxoethyl)-2-oxo-3-aza-4-phenylmethyl-5-hydroxy-6-(2-(1-t-butylamino-1-oxomethyl)phenyl)hexyl)-8-fluoroquinolin-2-yl carboxamide]
1.2 nM	CC(C)(C)NC(=O)c1ccccc1C[C@@H](O)[C@H](Cc1ccccc1)NC(=O)[C@H](CC(N)=O)NC(=O)c1cc(Cl)c2ccccc2n1 [Example 53, [1S-(1R*, 4R*, 5S*)]-N-(1-(2-amino-2-oxoethyl)-2-oxo-3-aza-4-phenylmethyl-5-hydroxy-6-(2-(1-t-butylamino-1-oxomethyl)phenyl)hexyl)-4-chloroquinolin-2-yl carboxamide]
78.6 nM	CC(C)(C)NC(=O)c1ccccc1C[C@@H](O)[C@H](Cc1ccccc1)NC(=O)[C@H](CCC(N)=O)NC(=O)c1ccc2ccccc2n1 [Example 54, [1S-(1R*, 4R*, 5S*)]-N-(1-(3-amino-3-oxopropyl)-2-oxo-3-aza-4-phenylmethyl-5-hydroxy-6-(2-(1-t-butylamino-1-oxomethyl)phenyl)hexyl)-2-quinolinyl carboxamide]
1.26 nM	CC(C)(C)NC(=O)c1ccccc1C[C@@H](O)[C@H](Cc1ccccc1)NC(=O)[C@H](CC(N)=O)NC(=O)c1ccc2cc(Cl)ccc2n1 [Example 55, [1S-(1R*, 4R*, 5S*)]-N-(1-(2-amino-2-oxoethyl)-2-oxo-3-aza-4-phenylmethyl-5-hydroxy-6-(2-(1-t-butylamino-1-oxomethyl)phenyl)hexyl)-6-chloroquinolin-2-yl carboxamide]
38.9 nM	CC(C)(C)NC(=O)c1ccccc1C[C@@H](O)[C@H](Cc1ccccc1)NC(=O)[C@H](CCC(N)=O)NC(=O)c1ccc2ccccc2c1 [Example 56, [1S-(1R*, 4R*, 5S*)]-N-(1-(3-amino-3-oxopropyl) -2-oxo-3-aza-4-phenylmethyl-5-hydroxy-6-(2-(1-t-butylamino-1-oxomethyl)phenyl)hexyl)-2-naphthyl carboxamide]
16.5 nM	CC(C)(C)NC(=O)c1ccccc1C[C@@H](O)[C@H](Cc1ccccc1)NC(=O)[C@H](CC(N)=O)NC(=O)NCc1ccccc1 [Example 57, [2R-(2R*, 3S*, 6S*)]-N-t-butyl-2-(2-hydroxy-3-phenylmethyl-4-aza-5-oxo-6-(2-amino-2-oxoethyl)-7-aza-8-oxo-8-(N-benzylamino)octyl)benzamide]
2.82 nM	CC(C)(C)NC(=O)c1ccccc1C[C@@H](O)[C@H](Cc1ccccc1)NC(=O)[C@H](CC(N)=O)NC(=O)NCc1cccc2ccccc12 [Example 58, [2R-(2R*, 3S*, 6S*)]-N-t-butyl-2-(2-hydroxy-3-phenylmethyl-4-aza-5-oxo-6-(2-amino-2-oxoethyl)-7-aza-8-oxo-8-(N-naphth-1-ylmethylamino)octyl)benzamide]
5.9 nM	CC(C)(C)NC(=O)c1ccccc1C[C@@H](O)[C@H](Cc1ccccc1)NC(=O)[C@H](CC(N)=O)NC(=O)c1ccc2cccc(Cl)c2n1 [Example 62, [1S-(1R*, 4R*, 5S*)]-N-(1-(2-amino-2-oxoethyl)-2-oxo-3-aza-4-phenylmethyl-5-hydroxy-6-(2-(1-t-butylamino-1-oxomethyl)phenyl)hexyl)-8-chloroquinolin-2-yl carboxamide]
0.784 nM	Cc1cc(C)c2ccc(C(=O)N[C@@H](CC(N)=O)C(=O)N[C@@H](Cc3ccccc3)[C@H](O)Cc3ccccc3C(=O)NC(C)(C)C)nc2c1 [Example 63, [1S-(1R*, 4R*, 5S*)]-N-(1-(2-amino-2-oxoethyl)-2-oxo-3-aza-4-phenylmethyl-5-hydroxy-6-(2-(1-t-butylamino-1-oxomethyl)phenyl)hexyl)-5,7-dimethylquinolin-2-yl carboxamide]
0.782 nM	COc1cc(C(=O)N[C@@H](CC(N)=O)C(=O)N[C@@H](Cc2ccccc2)[C@H](O)Cc2ccccc2C(=O)NC(C)(C)C)nc2ccccc12 [Example 64, [1S-(1R*, 4R*, 5S*) ]-N-(1-(2-amino-2-oxoethyl)-2-oxo-3-aza-4-phenylmethyl-5-hydroxy-6-(2-(1-t-butylamino-1-oxomethyl)phenyl)hexyl)-4-methoxyquinolin-2-yl carboxamide]
1.92 nM	Cc1ccc(C(=O)NC(C)(C)C)c(C[C@@H](O)[C@H](Cc2ccccc2)NC(=O)[C@H](CC(N)=O)NC(=O)c2ccc3ccccc3n2)c1 [Example 65, [1S-(1R*, 4R*, 5S*)]-N-(1-(2-amino-2-oxoethyl)-2-oxo-3-aza-4-phenylmethyl-5-hydroxy-6-(2-(1-t-butylamino-1-oxomethyl)-5-methylphenyl)hexyl)-2-quinolinyl carboxamide]
7.73 nM	Cc1ccc(C[C@@H](O)[C@H](Cc2ccccc2)NC(=O)[C@H](Cc2c[nH]cn2)NC(=O)c2ccc3ccccc3n2)c(C(=O)NC(C)(C)C)c1 [Example 67, [1S-(1R*, 4R*, 5S*)]-N-(1-(4-imidazolylmethyl)-2-oxo-3-aza-4-phenylmethyl-5-hydroxy-6-(2-(1-t-butylamino-1-oxomethyl)-4-methylphenyl)-4-hexyl)-2-quinolinyl carboxamide]
